From ChEMBL document CHEMBL3244346, “Synthesis of spiro[isobenzofuran-1(3H),4'-piperidines] as potential central nervous system agents. 4. Central nervous system depressants” (J Med Chem, 1978)
Activity calls are given as the source filed them. The calls are words filed in the database; no cut-off is given here.

Key:
Canis familiaris [1] = assay: Non-specific toxicity in po dosed Beagle dog assessed as inhibition of apomorphine hydrochloride-induced emesis; assay type: organism-based, Canis lupus familiaris; settings: in vivo
Rattus norvegicus [2] = assay: Neuroleptic activity in ip dosed Sprague-Dawley rat assessed as inhibition of Sidman avoidance measured for 4 to 6 hrs; assay type: functional
Rattus norvegicus [3] = assay: Non-specific toxicity in ip dosed Wistar rat assessed as inhibition of amphetamine-induced circling administered 60 mins prior to amphetamine challenge; assay type: organism-based; settings: in vivo, 1 h
Rattus norvegicus [4] = assay: Neuroleptic activity in ip dosed Long-Evans rat assessed as increase in escape failure; assay type: functional
Rattus norvegicus [5] = assay: Neuroleptic activity in ip dosed Long-Evans rat assessed as inhibition of pole-climb avoidance; assay type: functional
Rattus norvegicus [6] = assay: Neuroleptic activity in po dosed Sprague-Dawley rat assessed as inhibition of Sidman avoidance measured for 4 to 6 hrs; assay type: functional
Squirrel monkey [7] = assay: Neuroleptic activity in squirrel monkey assessed as inhibition of Sidman avoidance at 5 mg/kg, po measured for 4 hrs; assay type: functional; settings: Saimiri sciureus, in Primates
Squirrel monkey [8] = assay: Neuroleptic activity in squirrel monkey assessed as inhibition of Sidman avoidance at 20 mg/kg, po measured for 4 hrs; assay type: functional; settings: Saimiri sciureus, in Primates
Squirrel monkey [9] = assay: Neuroleptic activity in squirrel monkey assessed as inhibition of Sidman avoidance at 20 mg/kg, po measured for 4 hrs in presence of anticholinergic agent benztropine; assay type: functional, organism-based; parameters: dose 20 mg/kg; settings: Saimiri sciureus
Rattus norvegicus [10] = assay: Non-specific toxicity in Wistar rat assessed as inhibition of apomorphine hydrochloride-induced stereotypy at 25 mg/kg, sc administered 1 hr prior to apomorphine hydrochloride challenge measured after 5 to 20 mins; assay type: organism-based; parameters: dose 25 mg/kg, route subcutaneous; settings: in vivo
Rattus norvegicus [11] = assay: Neuroleptic activity in po dosed Long-Evans rat assessed as inhibition of pole-climb avoidance; assay type: functional
Squirrel monkey [12] = assay: Neuroleptic activity in squirrel monkey assessed as inhibition of Sidman avoidance at 10 mg/kg, po measured for 4 hrs; assay type: functional; settings: Saimiri sciureus, in Primates
Canis familiaris [13] = assay: Ratio of compound ED50 to haloperidol ED50 for non-specific toxicity in po dosed Beagle dog assessed as inhibition of apomorphine hydrochloride-induced emesis; assay type: organism-based, Canis lupus familiaris; settings: in vivo
Rattus norvegicus [14] = assay: Non-specific toxicity in ip dosed Wistar rat assessed as inhibition of d-amphetamine sulfate-induced stereotypy administered 1 hr prior to d-amphetamine sulfate challenge measured after 55 to 65 mins; assay type: organism-based; settings: in vivo
Rattus norvegicus [15] = assay: Neuroleptic activity in po dosed Long-Evans rat assessed as increase in escape failure; assay type: functional
Rattus norvegicus [16] = assay: Neuroleptic activity in Long-Evans rat assessed as inhibition of pole-climb avoidance at 5 mg/kg, ip relative to control; assay type: functional; settings: route intraperitoneal
Rattus norvegicus [17] = assay: Neuroleptic activity in Sprague-Dawley rat assessed as inhibition of Sidman avoidance at 20 mg/kg, ip relative to control; assay type: functional; settings: route intraperitoneal
Canis familiaris [18] = assay: Non-specific toxicity in Beagle dog assessed as inhibition of apomorphine hydrochloride-induced emesis at 0.5 mg/kg, po; assay type: organism-based; parameters: dose 0.5 mg/kg, route oral; settings: Canis lupus familiaris
Rattus norvegicus [19] = assay: Non-specific toxicity in sc dosed Wistar rat assessed as inhibition of apomorphine hydrochloride-induced stereotypy administered 1 hr prior to apomorphine hydrochloride challenge measured after 5 to 20 mins; assay type: organism-based; settings: in vivo
Squirrel monkey [20] = assay: Neuroleptic activity in squirrel monkey assessed as inhibition of Sidman avoidance at 0.75 mg/kg, po measured for 4 hrs; assay type: functional; settings: Saimiri sciureus, in Primates
Squirrel monkey [21] = assay: Neuroleptic activity in squirrel monkey assessed as inhibition of Sidman avoidance at 1 mg/kg, po measured for 4 hrs; assay type: functional; settings: Saimiri sciureus, in Primates
Rattus norvegicus [22] = species on record: Rattus norvegicus; assay: animal or person; settings: Sprague-Dawley, po, read-out: INH
Description: Neuroleptic activity in Sprague-Dawley rat assessed as inhibition of Sidman avoidance at 1.25 mg/kg, po relative to control

Squirrel monkey [23] = assay: Neuroleptic activity in squirrel monkey assessed as inhibition of Sidman avoidance at 2.5 mg/kg, po measured for 4 hrs; assay type: functional; settings: Saimiri sciureus, in Primates
Rattus norvegicus [24] = assay: Increase in amphetamine-induced circling in Wistar rat at 5 mg/kg, ip administered 60 mins prior to amphetamine challenge; assay type: functional; settings: route intraperitoneal

SMILES	ED50 (Canis familiaris [1]) [mg/kg]	ED50 (Rattus norvegicus [2]) [mg/kg]	ED50 (Rattus norvegicus [3]) [mg/kg]	ED50 (Rattus norvegicus [4]) [mg/kg]	ED50 (Rattus norvegicus [5]) [mg/kg]	ED50 (Rattus norvegicus [6]) [mg/kg]	ED50 (Rattus norvegicus [14]) [mg/kg]	also measured
O=C(CCCN1CCC2(CC1)OC(c1ccccc1)c1ccccc12)c1ccc(F)cc1 (configuration not stated)	0.15	6.2	2.6	> 40	8.6	4.8		
O=C(CCCN1CCC2(CC1)OC(c1ccc(F)cc1)c1ccccc12)c1ccc(F)cc1 (configuration not stated)	> 5		11.9			3.7	11.8	inhibition in vivo at 5 mg/kg (Squirrel monkey [7]): 21%; inhibition in vivo at 20 mg/kg (Squirrel monkey [8]): 90%; inhibition (Squirrel monkey [9]): inactive; Activity (Rattus norvegicus [10]): Non-toxic; ED50 (Rattus norvegicus [11]): 4.3 mg/kg; inhibition in vivo at 10 mg/kg (Squirrel monkey [12]): 17%; Ratio ED50 (Canis familiaris [13]): 10; ED50 (Rattus norvegicus [15]): 16.2 mg/kg
O=C(CCCN1CCC2(CC1)OC(c1ccccc1)c1ccc(Cl)cc12)c1ccc(F)cc1 (configuration not stated)	0.05	2.3	3.5					inhibition in vivo at 5 mg/kg (Rattus norvegicus [16]): 47%
CSc1ccc2c(c1)N(CCC1CCCCN1C)c1ccccc1S2 (configuration not stated) [THIORIDAZINE]			13.3	> 60	13.8		15.8	inhibition in vivo at 20 mg/kg (Rattus norvegicus [17]): 15%
COc1ccc(C2OC3(CCN(CCCC(=O)c4ccc(F)cc4)CC3)c3ccccc32)cc1 (configuration not stated)	0.16		10.2	> 40	17.2	3		
O=C(CCCN1CCC2(CC1)OC(c1ccc(F)cc1)c1ccc(F)cc12)c1ccc(F)cc1 (configuration not stated)			9.7	> 40	18.6	2.2		Ratio ED50 (Canis familiaris [13]): 10; inhibition at 0.5 mg/kg (Canis familiaris [18]): 50%
COc1ccc2c(c1)C1(CCN(CCCC(=O)c3ccc(F)cc3)CC1)OC2c1ccccc1 (configuration not stated)						> 10		inhibition in vivo at 10 mg/kg (Squirrel monkey [12]): 77%
O=C(CCCN1CCC(O)(c2ccc(Cl)cc2)CC1)c1ccc(F)cc1 [HALOPERIDOL]	0.06	0.35	0.1	7.3	0.53		0.21	ED50 (Rattus norvegicus [19]): 0.2 mg/kg; inhibition in vivo at 0.75 mg/kg (Squirrel monkey [20]): 2%; inhibition in vivo at 1 mg/kg (Squirrel monkey [21]): 30%; inhibition in vivo at 1.25 mg/kg (Rattus norvegicus [22]): 50%
CN(C)CCCN1c2ccccc2Sc2ccc(Cl)cc21 [CHLORPROMAZINE]	12.8	2.3	2.2	9	5.2	7.5	1.7	inhibition in vivo at 5 mg/kg (Squirrel monkey [7]): 54%; inhibition in vivo at 2.5 mg/kg (Squirrel monkey [23]): 11%; ED50 (Rattus norvegicus [19]): 5.4 mg/kg
O=C(CCCN1CCC2(CC1)OC(c1ccccc1)c1ccc(F)cc12)c1ccc(F)cc1 (configuration not stated)	0.047	2.7	4.6	31.1	0.95			
CN1C(=O)CN=C(c2ccccc2)c2cc(Cl)ccc21 [DIAZEPAM]				24.5	13.4			
O=C(CCCN1CCC2(CC1)OC(c1ccc(Cl)cc1)c1ccccc12)c1ccc(F)cc1 (configuration not stated)	> 10	> 10			> 20			Activity (Rattus norvegicus [24]): 47%
CCCC(C)C1(CC)C(=O)N=C([O-])NC1=O.[Na+] (configuration not stated) [PENTOBARBITAL SODIUM]				24.1	23.7			
COc1ccc2c(c1)C(c1ccccc1)OC21CCN(CCCC(=O)c2ccc(F)cc2)CC1 (configuration not stated)	> 1	9.5	9.9	> 40	9.8		6.97	inhibition in vivo at 2.5 mg/kg (Squirrel monkey [23]): 29%; Activity (Rattus norvegicus [10]): Non-toxic; Ratio ED50 (Canis familiaris [13]): 10
